# Experiment: RP, Thermo Scientific Acclaim RSLC 120 C18, 100 × 2.1 mm, 2.2 µm, 30 °C, 0.2 mL/min, estimated dead time 1.1 min; A: 90% water + 10% methanol + 0.01% formic acid + 5 mM ammonium formate, pH 3.61; B: methanol + 0.01% formic acid + 5 mM ammonium formate, pH 3.61; gradient (min/%B) 0/1 1/1 2/39 13/99.9 15/99.9 15.1/1 20.1/1
# Conditions: stereoisomer not certain
row,SMILES,LC retention time [min]
1,CN(C)c1ccc(C(=C2C=CC(=[N+](C)C)C=C2)c2ccccc2)cc1 [Malachite green (MG)],8.34
2,CCOC(=O)CC(SP(=O)(OC)OC)C(=O)OCC (configuration not stated) [Malaoxon],7.01
3,CCOC(=O)CC(SP(=S)(OC)OC)C(=O)OCC (configuration not stated) [Malathion],9.59
4,CNCCCC12CCC(c3ccccc31)c1ccccc12 [Maprotiline],8.08
5,CN1CCN(c2c(F)cc3c(=O)c(C(=O)O)cn4c3c2OCN4C)CC1 [Marbofloxacin],4.18
6,COc1ccc2[nH]cc(CC(C)N)c2c1 (configuration not stated) [MeO-AMT (5-)],4.36
7,C=CCN(CC=C)CCc1c[nH]c2ccc(OC)cc12 [MeO-DALT (5-)],4.89
8,COc1ccc2[nH]cc(CCN(C(C)C)C(C)C)c2c1 [MeO-DIPT (5-)],4.81
9,COc1ccc2[nH]cc(CCN(C)C)c2c1 [MeO-DMT (5-)],3.98
10,COc1ccc2[nH]c(C)c(CCN(C)C)c2c1 [MeO-TMT (5-)],4.19
11,COc1ccc2[nH]cc(CC(=O)O)c2c1 [MeOT (5-)],4.01
12,Cc1ccc(C(=O)C(C)N2CCCC2)cc1 (configuration not stated) [MePPP (4-4-Methyl-pyrrolidinopropiophenone)],4.76
13,COC(=O)Nc1nc2ccc(C(=O)c3ccccc3)cc2[nH]1 [Mebendazole],8.25
14,CCN(CCCCOC(=O)c1ccc(OC)c(OC)c1)C(C)Cc1ccc(OC)cc1 (configuration not stated) [Mebeverine],6.79
15,CCOC(=O)N(C)C(=O)CSP(=S)(OCC)OCC [Mecarbam],10.2
16,Cc1ccc(Cl)c(Nc2ccccc2C(=O)O)c1Cl [Meclofenamic acid],11.3
17,CC1N=C(c2ccccc2Cl)c2cc([N+](=O)[O-])ccc2NC1=O (configuration not stated) [Meclonazepam],8.28
18,Cc1cccc(CN2CCN(C(c3ccccc3)c3ccc(Cl)cc3)CC2)c1 (configuration not stated) [Meclozine],11.3
19,COC(=O)C(C)Oc1ccc(Cl)cc1C (configuration not stated) [Mecoprop-methylester],10.6
20,Cc1cc(Cl)ccc1OC(C)C(=O)O (configuration not stated) [Mecoprop],8.27
21,CN1CCN=C(c2ccccc2)c2cc(Cl)ccc21 [Medazepam],10.2
22,CCOC(=O)Nc1cccc(OC(=O)Nc2ccccc2)c1 [Medipham-Desmethyl (desmedipham)],8.57
23,CC(=O)C1(O)CCC2C3CC(C)C4=CC(=O)CCC4(C)C3CCC21C (configuration not stated) [Medroxyprogesterone],10.7

row,SMILES,LC retention time [min]
1,CC(=O)OC1(C(C)=O)CCC2C3CC(C)C4=CC(=O)CCC4(C)C3CCC21C (configuration not stated) [Medroxyprogesteroneacetate],11
2,CN(C(=O)COc1nc2ccccc2s1)c1ccccc1 [Mefenacet],9.83
3,Cc1cccc(Nc2ccccc2C(=O)O)c1C [Mefenamic acid],11.6
4,CC(Cc1ccccc1)NCCCCl (configuration not stated) [Mefenorex],5.31
5,CCOC(=O)C1=NN(c2ccc(Cl)cc2Cl)C(C)(C(=O)OCC)C1 (configuration not stated) [Mefenpyr-diethyl],11.1
6,CCN(CC)CCNC(=O)COc1ccc(OC)cc1 [Mefexamide],4.31
7,OC(c1cc(C(F)(F)F)nc2c(C(F)(F)F)cccc12)C1CCCCN1 (configuration not stated) [Mefloquine],8.59
8,CC(=O)Nc1cc(NS(=O)(=O)C(F)(F)F)c(C)cc1C [Mefluidide],6.85
9,CN(CC1(C)CCCO1)S(=O)(=O)c1ccc(Cl)c(S(N)(=O)=O)c1 (configuration not stated) [Mefruside],6.56
10,CC(=O)OC1(C(C)=O)CCC2C3C=C(C)C4=CC(=O)CCC4(C)C3CCC21C (configuration not stated) [Megestrol-17-acetate],10.9
11,Nc1nc(N)nc(N)n1 [Melamine],1.45
12,COc1ccc2[nH]cc(CCNC(C)=O)c2c1 [Melatonin],5.36
13,CN(C)CCC=C1c2ccccc2C(C)(C)c2ccccc21 [Melitracen],8.79
14,Cc1cnc(NC(=O)C2=C(O)c3ccccc3S(=O)(=O)N2C)s1 [Meloxicam],7.09
15,CC1CCN(CCCC(=O)c2ccc(F)cc2)CC1 [Melperone],5.21
16,NC(Cc1ccc(N(CCCl)CCCl)cc1)C(=O)O (configuration not stated) [Melphalan],7.01
17,CC#Cc1cc(C)nc(Nc2ccccc2)n1 [Mepanipyrim],10.2
18,CNC(C)C(=O)c1ccc(C)cc1 (configuration not stated) [Mephedrone],4.49
19,Cc1cc2c(OCC(O)CNC(C)C)cccc2[nH]1 (configuration not stated) [Mepindolol],4.44
20,Cc1cccc(C)c1NC(=O)C1CCCCN1C (configuration not stated) [Mepivacaine],4.66
21,CCCC(C)(COC(N)=O)COC(N)=O [Meprobamate],5.94
22,Cc1ccccc1C(=O)Nc1cccc(OC(C)C)c1 [Mepronil],9.62
23,CCC1(c2cccc(O)c2)CCCCN(C)C1 (configuration not stated) [Meptazinol],4.74

row,SMILES,LC retention time [min]
1,c1ccc2c(c1)Sc1ccccc1N2CC1CN2CCC1CC2 (configuration not stated) [Mequitazine],8.29
2,S=C1N=CN=C2N=CN=C12 [Mercaptopurine (6-)],2.61
3,CC(O)C1C(=O)N2C(C(=O)O)=C(SC3CNC(C(=O)N(C)C)C3)C(C)C12 (configuration not stated) [Meropenem],10.6
4,COc1cc(CCN)cc(OC)c1OC [Mescaline],3.88
5,CC(Cc1ccccc1)N1C=C(NC(=O)N=C2C=CC(=O)C=C2)ON1 (configuration not stated) [Mesocarb-P-Hydroxy],7.24
6,CN1CCCCC1CCN1c2ccccc2Sc2ccc(S(C)=O)cc21 (configuration not stated) [Mesoridazine],6.74
7,COCC1CN=C(c2ccccc2Cl)c2cc(Br)ccc2N1C (configuration not stated) [Metaclazepam],11.6
8,N#Cc1ccc(CC(=NNC(=O)Nc2ccc(OC(F)(F)F)cc2)c2cccc(C(F)(F)F)c2)cc1 [Metaflumizone],12.1
9,COCC(=O)N(c1c(C)cccc1C)C(C)C(=O)OC (configuration not stated) [Metalaxyl],8.22
10,Cc1nnc(-c2ccccc2)c(=O)[nH]1 [Metamitron-desamino],5.29
11,Cc1nnc(-c2ccccc2)c(=O)n1N [Metamitron],5.24
12,Cc1cc(C)cc(OCC2CNC(=O)O2)c1 (configuration not stated) [Metaxalone],7.86
13,Cc1cccc(C(=O)O)c1N(Cn1cccn1)C(=O)C(=O)O [Metazachlor BH479-12],4.42
14,Cc1cccc(C)c1N(Cn1cccn1)C(=O)CS(=O)CC(=O)O (configuration not stated) [Metazachlor BH 479-9],4.94
15,Cc1cccc(C)c1N(Cn1cccn1)C(=O)CS(C)=O (configuration not stated) [Metazachlor BH 479-11],5.54
16,Cc1cccc(C)c1N(Cn1cccn1)C(=O)C(=O)O [Metazachlor OA],5.09
17,Cc1cccc(C)c1N(Cn1cccn1)C(=O)CCl [Metazachlor],8.11
18,CC1(C)CCC(Cc2ccc(Cl)cc2)C1(O)Cn1cncn1 (configuration not stated) [Metconazole],11.2
19,CC(=O)OC1CCC2C3CCC4CC(=O)C=C(C)C4(C)C3CCC12C (configuration not stated) [Metenolone acetate],12.5
20,CN(C)C(=N)N=C(N)N [Metformin],1.39
21,CNC(=O)N(C)c1nc2ccccc2s1 [Methabenzthiazuron],8.26
22,C=C(C)C(N)=O [Methacrylamide],2.81
23,CCC(=O)C(CCN(C)C)(c1ccccc1)c1ccccc1 [Methadone-Nor],7.68

row,SMILES,LC retention time [min]
1,CCC(=O)C(CC(C)N(C)C)(c1ccccc1)c1ccccc1 (configuration not stated) [Methadone],8.04
2,CN(C)CCN(Cc1cccs1)c1ccccc1 [Methaphenilene],6.32
3,Cc1ccccc1-n1c(C)nc2ccccc2c1=O [Methaqualone],7.83
4,CC(=O)N=c1sc(S(N)(=O)=O)nn1C [Methazolamide],4.28
5,CNC(C)C(=O)c1cccc(F)c1 (configuration not stated) [Methcathinone (3-F-)],3.94
6,CNC(C)C(=O)c1ccc(F)cc1 (configuration not stated) [Methcathinone (4-F-/ 4-FMC. Flephedrone)],3.91
7,CNC(C)C(=O)c1ccccc1 (configuration not stated) [Methcathinone],3.68
8,CNC(C)C(=O)c1ccc(OC)cc1 (configuration not stated) [Methedrone],4.16
9,Cc1oc(C)c(C(=O)Nc2ccccc2)c1C [Methfuroxam],8.79
10,COc1nn(CSP(=S)(OC)OC)c(=O)s1 [Methidathion],8.7
11,Cn1cc[nH]c1=S [Methimazole],2.61
12,CNC(=O)Oc1cc(C)c(SC)c(C)c1 [Methiocarb (Mercaptodimethur)],9.34
13,CNC(=O)Oc1cc(C)c(S(C)(=O)=O)c(C)c1 [Methiocarb-sulfone],5.28
14,Cc1cc(O)cc(C)c1S(C)=O (configuration not stated) [Methiocarb-sulfoxide phenol],4.63
15,CNC(=O)Oc1cc(C)c(S(C)=O)c(C)c1 (configuration not stated) [Methiocarb-sulfoxide],4.86
16,CNC(C)Cc1cccs1 (configuration not stated) [Methiopropamine],3.69
17,COc1ccccc1OCC(O)COC(N)=O (configuration not stated) [Methocarbamol],5.21
18,C=CCC1(C(C)C#CCC)C(=O)NC(=O)N(C)C1=O (configuration not stated) [Methohexital],9.09
19,CNC(=O)ON=C(C)SC [Methomyl],4.16
20,COC(C)(C)CCCC(C)CC=CC(C)=CC(=O)OC(C)C (configuration not stated) [Methoprene],13.6
21,COCCCNc1nc(NC(C)C)nc(SC)n1 [Methoprotryne],9.14
22,CN(Cc1cnc2nc(N)nc(N)c2n1)c1ccc(C(=O)NC(CCC(=O)O)C(=O)O)cc1 (configuration not stated) [Methotrexate],3.96
23,CCNC1(c2cccc(OC)c2)CCCCC1=O (configuration not stated) [Methoxetamine],4.93
